Reference: patent publication US12208092B2, “Compositions and methods for administering paltusotine to patients with hepatic impairment” (CRINETICS PHARMACEUTICALS, INC., priority 2023, dated 2025)

Test: Phase 1 hepatic impairment study, safety (TEAEs) after single oral 20 mg tablet
[1] = normal hepatic function (N = 14)
[2] = severe hepatic impairment (N = 6)

Procedure: The secondary objective of the study was to assess the safety and tolerability of a single dose of paltusotine in subjects with varying degrees of hepatic impairment.
Safety and tolerability were assessed by the following endpoints: reported adverse events (AEs), clinical laboratory test results (hematology, coagulation, serum chemistry, and urinalysis), vital sign measurements, and 12-lead electrocardiogram results
All 36 subjects who were enrolled in the study received all planned single doses of paltusotine 20 mg (1×20 mg tablet) and were included in the safety and PK analysis populations.

For `N#Cc1cccc(-c2ccc3ncc(-c4cc(F)cc(F)c4)c(N4CCC(N)CC4)c3c2)c1O` [paltusotine, 3-[4-(4-amino-1-piperidyl)-3-(3,5-difluorophenyl)-6-quinolyl]-2-hydroxybenzonitrile], the “TEAE SOC Gastrointestinal disorders, number of occurrences” value [1] was 5, the “TEAE SOC Gastrointestinal disorders, subjects n (%)” value [1] was 4 (28.6%) and the “TEAE SOC General disorders and administration site conditions, subjects n (%)” value [1] was 0. The “TEAE SOC Infections and infestations, subjects n (%)” value [1] was 0, the “TEAE SOC Nervous system disorders, number of occurrences” value [1] was 1 and the “TEAE SOC Nervous system disorders, subjects n (%)” value [1] was 1 (7.1%). The “TEAE SOC Renal and urinary disorders, subjects n (%)” value [1] was 0, the “TEAEs Not Related to study drug (strongest relationship), subjects n (%)” value (shortened to “TEAEs Not Related to study drug … (%)”) [1] was 1 (7.1%) and the “TEAEs Not Related to study drug, number of occurrences” value [1] was 1. For the same compound, the “TEAEs Related to study drug (strongest relationship), subjects n (%)” value [1] was 3 (21.4%), the “TEAEs Related to study drug, number of occurrences” value (“TEAEs Related to study drug, number” for short) [1] was 5 and the “TEAEs by maximum severity: Mild, number of occurrences” value (from here on “TEAEs … Mild, number of occurrences”) [1] was 5. For the same compound, the “TEAEs by maximum severity: Mild, subjects n (%)” value (from here on “TEAEs … Mild, subjects n (%)”) [1] was 3 (21.4%), the “TEAEs by maximum severity: Moderate, number of occurrences” value (shortened to “TEAEs … Moderate, number of occurrences”) [1] was 1 and the “TEAEs by maximum severity: Moderate, subjects n (%)” value (shortened to “TEAEs … Moderate, subjects n (%)”) [1] was 1 (7.1%). The “TEAEs by maximum severity: Severe, subjects n (%)” value (“TEAEs … Severe, subjects n (%)” below) [1] was 0, the “Total number of SAEs reported” value [1] was 0 and the “Total number of TEAEs reported” value [1] was 6. The “Any SAEs, number of occurrences” value (overall (N = 36)) was 1, the “Any TEAE, number of occurrences” value (overall (N = 36)) was 17 and the “Related TEAE Abdominal discomfort, number of occurrences” value (overall (N = 36)) was 1. The “Related TEAE Abdominal discomfort, subjects n (%)” value (overall (N = 36)) was 1 (2.8%), the “Related TEAE Diarrhea, number of occurrences” value (overall (N = 36)) was 5 and the “Related TEAE Diarrhea, subjects n (%)” value (overall (N = 36)) was 5 (13.9%). The “Related TEAE Epigastric discomfort, number of occurrences” value (overall (N = 36)) was 1, the “Related TEAE Epigastric discomfort, subjects n (%)” value (overall (N = 36)) was 1 (2.8%) and the “Related TEAE Fatigue, number of occurrences” value (overall (N = 36)) was 1. For the same compound, the “Related TEAE Fatigue, subjects n (%)” value (overall (N = 36)) was 1 (2.8%), the “Related TEAE Haematuria, number of occurrences” value (overall (N = 36)) was 1 and the “Related TEAE Haematuria, subjects n (%)” value (overall (N = 36)) was 1 (2.8%). For the same compound, the “Related TEAE Headache, number of occurrences” value (overall (N = 36)) was 1, the “Related TEAE Headache, subjects n (%)” value (overall (N = 36)) was 1 (2.8%) and the “Related TEAE Neutropenia, number of occurrences” value (overall (N = 36)) was 1. The “Related TEAE Neutropenia, subjects n (%)” value (overall (N = 36)) was 1 (2.8%), the “Related TEAE Pain, number of occurrences” value (overall (N = 36)) was 1 and the “Related TEAE Pain, subjects n (%)” value (overall (N = 36)) was 1 (2.8%). For the same compound, the “Related TEAE Paraesthesia, number of occurrences” value (overall (N = 36)) was 1, the “Related TEAE Paraesthesia, subjects n (%)” value (overall (N = 36)) was 1 (2.8%) and the “SAEs Not related to study drug (strongest relationship), subjects n (%)” value (overall (N = 36)) was 1 (2.8%). The “SAEs Not related to study drug, number of occurrences” value (overall (N = 36)) was 1, the “SAEs Related to study drug (strongest relationship), subjects” value (overall (N = 36)) was 0 and the “Subjects reporting any SAEs, subjects n (%)” value (overall (N = 36)) was 1 (2.8%). For the same compound, the “TEAE Abdominal discomfort, number of occurrences” value (overall (N = 36)) was 1, the “TEAE Abdominal discomfort, subjects n (%)” value (overall (N = 36)) was 1 (2.8%) and the “TEAE COVID-19, number of occurrences” value (overall (N = 36)) was 1. For the same compound, the “TEAE COVID-19, subjects n (%)” value (overall (N = 36)) was 1 (2.8%), the “TEAE Death, number of occurrences” value (overall (N = 36)) was 1 and the “TEAE Death, subjects n (%)” value (overall (N = 36)) was 1 (2.8%). For the same compound, the “TEAE Diarrhea, number of occurrences” value (overall (N = 36)) was 6, the “TEAE Diarrhea, subjects n (%)” value (overall (N = 36)) was 6 (16.7%) and the “TEAE Epigastric discomfort, number of occurrences” value (overall (N = 36)) was 1. For the same compound, the “TEAE Epigastric discomfort, subjects n (%)” value (overall (N = 36)) was 1 (2.8%), the “TEAE Fatigue, number of occurrences” value (overall (N = 36)) was 1 and the “TEAE Fatigue, subjects n (%)” value (overall (N = 36)) was 1 (2.8%). For the same compound, the “TEAE Haematuria, number of occurrences” value (overall (N = 36)) was 1, the “TEAE Haematuria, subjects n (%)” value (overall (N = 36)) was 1 (2.8%) and the “TEAE Headache, number of occurrences” value (overall (N = 36)) was 2. The “TEAE Headache, subjects n (%)” value (overall (N = 36)) was 2 (5.6%), the “TEAE Neutropenia, number of occurrences” value (overall (N = 36)) was 1 and the “TEAE Neutropenia, subjects n (%)” value (overall (N = 36)) was 1 (2.8%). The “TEAE Pain, number of occurrences” value (overall (N = 36)) was 1, the “TEAE Pain, subjects n (%)” value (overall (N = 36)) was 1 (2.8%) and the “TEAE Paraesthesia, number of occurrences” value (overall (N = 36)) was 1. The “TEAE Paraesthesia, subjects n (%)” value (overall (N = 36)) was 1 (2.8%), the “TEAE SOC Blood and lymphatic system disorders, number of occurrences” value (overall (N = 36)) was 1 and the “TEAE SOC Blood and lymphatic system disorders, subjects n (%)” value (overall (N = 36)) was 1 (2.8%). The “TEAE SOC Gastrointestinal disorders, number of occurrences” value (overall (N = 36)) was 8, the “TEAE SOC Gastrointestinal disorders, subjects n (%)” value (overall (N = 36)) was 7 (19.4%) and the “TEAE SOC General disorders and administration site conditions, number of occurrences” value (overall (N = 36)) was 3. For the same compound, the “TEAE SOC General disorders and administration site conditions, subjects n (%)” value (overall (N = 36)) was 2 (5.6%), the “TEAE SOC Infections and infestations, number of occurrences” value (overall (N = 36)) was 1 and the “TEAE SOC Infections and infestations, subjects n (%)” value (overall (N = 36)) was 1 (2.8%). The “TEAE SOC Nervous system disorders, number of occurrences” value (overall (N = 36)) was 3, the “TEAE SOC Nervous system disorders, subjects n (%)” value (overall (N = 36)) was 3 (8.3%) and the “TEAE SOC Renal and urinary disorders, number of occurrences” value (overall (N = 36)) was 1. The “TEAE SOC Renal and urinary disorders, subjects n (%)” value (overall (N = 36)) was 1 (2.8%), the “TEAEs Not Related to study drug … (%)” value (overall (N = 36)) was 1 (2.8%) and the “TEAEs Not Related to study drug, number of occurrences” value (overall (N = 36)) was 4. For the same compound, the “TEAEs Related to study drug, number” value (overall (N = 36)) was 13, the “TEAEs … Mild, number of occurrences” value (overall (N = 36)) was 12 and the “TEAEs … Mild, subjects n (%)” value (overall (N = 36)) was 6 (16.7%). For the same compound, the “TEAEs … Moderate, number of occurrences” value (overall (N = 36)) was 4, the “TEAEs … Moderate, subjects n (%)” value (overall (N = 36)) was 3 (8.3%) and the “TEAEs by maximum severity: Severe, number of occurrences” value (overall (N = 36)) was 1. For the same compound, the “TEAEs … Severe, subjects n (%)” value (overall (N = 36)) was 1 (2.8%), the “Total number of SAEs reported” value (overall (N = 36)) was 1 and the “Total number of TEAEs reported” value (overall (N = 36)) was 17. The “Any TEAE, number of occurrences” value [2] was 4, the “Related TEAE Abdominal discomfort, subjects n (%)” value [2] was 0 and the “Related TEAE Diarrhea, number of occurrences” value [2] was 1. For the same compound, the “Related TEAE Diarrhea, subjects n (%)” value [2] was 1 (16.7%), the “Related TEAE Epigastric discomfort, subjects n (%)” value [2] was 0 and the “Related TEAE Fatigue, subjects n (%)” value [2] was 0. The “Related TEAE Haematuria, subjects n (%)” value [2] was 0, the “Related TEAE Headache, subjects n (%)” value [2] was 0 and the “Related TEAE Neutropenia, number of occurrences” value [2] was 1. For the same compound, the “Related TEAE Neutropenia, subjects n (%)” value [2] was 1 (16.7%), the “Related TEAE Pain, subjects n (%)” value [2] was 0 and the “Related TEAE Paraesthesia, subjects n (%)” value [2] was 0. For the same compound, the “SAEs Not related to study drug (strongest relationship), subjects n (%)” value [2] was 0, the “SAEs Related to study drug (strongest relationship), subjects” value [2] was 0 and the “Subjects reporting any SAEs, subjects n (%)” value [2] was 0. For the same compound, the “Subjects reporting any TEAE, subjects n (%)” value [2] was 2 (33.3%), the “TEAE Abdominal discomfort, subjects n (%)” value [2] was 0 and the “TEAE COVID-19, number of occurrences” value [2] was 1. For the same compound, the “TEAE COVID-19, subjects n (%)” value [2] was 1 (16.7%), the “TEAE Death, subjects n (%)” value [2] was 0 and the “TEAE Diarrhea, number of occurrences” value [2] was 1. For the same compound, the “TEAE Diarrhea, subjects n (%)” value [2] was 1 (16.7%), the “TEAE Epigastric discomfort, subjects n (%)” value [2] was 0 and the “TEAE Fatigue, subjects n (%)” value [2] was 0. The “TEAE Haematuria, subjects n (%)” value [2] was 0, the “TEAE Headache, number of occurrences” value [2] was 1 and the “TEAE Headache, subjects n (%)” value [2] was 1 (16.7%). The “TEAE Neutropenia, number of occurrences” value [2] was 1, the “TEAE Neutropenia, subjects n (%)” value [2] was 1 (16.7%) and the “TEAE Pain, subjects n (%)” value [2] was 0. For the same compound, the “TEAE Paraesthesia, subjects n (%)” value [2] was 0, the “TEAE SOC Blood and lymphatic system disorders, number of occurrences” value [2] was 1 and the “TEAE SOC Blood and lymphatic system disorders, subjects n (%)” value [2] was 1 (16.7%). The “TEAE SOC Gastrointestinal disorders, number of occurrences” value [2] was 1, the “TEAE SOC Gastrointestinal disorders, subjects n (%)” value [2] was 1 (16.7%) and the “TEAE SOC General disorders and administration site conditions, subjects n (%)” value [2] was 0. The “TEAE SOC Infections and infestations, number of occurrences” value [2] was 1, the “TEAE SOC Infections and infestations, subjects n (%)” value [2] was 1 (16.7%) and the “TEAE SOC Nervous system disorders, number of occurrences” value [2] was 1. The “TEAE SOC Nervous system disorders, subjects n (%)” value [2] was 1 (16.7%), the “TEAE SOC Renal and urinary disorders, subjects n (%)” value [2] was 0 and the “TEAEs Not Related to study drug … (%)” value [2] was 0. The “TEAEs Related to study drug (strongest relationship), subjects n (%)” value [2] was 2 (33.3%), the “TEAEs Related to study drug, number” value [2] was 2 and the “TEAEs … Mild, number of occurrences” value [2] was 2. The “TEAEs … Mild, subjects n (%)” value [2] was 1 (16.7%), the “TEAEs … Moderate, number of occurrences” value [2] was 2 and the “TEAEs … Moderate, subjects n (%)” value [2] was 1 (16.7%). The “TEAEs … Severe, subjects n (%)” value [2] was 0, the “Total number of SAEs reported” value [2] was 0 and the “Total number of TEAEs reported” value [2] was 4.
